Data as given in the NIST ThermoML archive (doi:10.1016/j.fluid.2010.08.022).

Settings: 101.33 kPa; for speed of sound: Sing-around technique in a fixed-path interferometer; for mass density: Vibrating tube method

CCCCCCCC/C=C\CCCCCCCC(=O)O.NCCO [2-hydroxyethylammonium oleate]
Settings | mass density [kg/m3] | speed of sound [m/s]
278.16 K, Crystal | 955.929 | 1635.4
278.41 K, Crystal | 955.757 | 1634.1
278.66 K, Crystal | 955.58 | 1632.7
278.9 K, Crystal | 955.409 | 1631.4
279.16 K, Crystal | 955.234 | 1630
279.41 K, Crystal | 955.057 | 1628.7
279.65 K, Crystal | 954.881 | 1627.4
279.91 K, Crystal | 954.704 | 1626.1
280.16 K, Crystal | 954.527 | 1624.7
280.41 K, Crystal | 954.349 | 1623.4
280.65 K, Crystal | 954.172 | 1622.1
280.91 K, Crystal | 953.991 | 1620.8
281.15 K, Crystal | 953.811 | 1619.5
281.41 K, Crystal | 953.63 | 1618.2
281.66 K, Crystal | 953.448 | 1616.8
281.91 K, Crystal | 953.266 | 1615.5
282.16 K, Crystal | 953.081 | 1614.2
282.41 K, Crystal | 952.898 | 1612.9
282.66 K, Crystal | 952.714 | 1611.6
282.91 K, Crystal | 952.526 | 1610.3
283.16 K, Crystal | 952.337 | 1608.9
283.41 K, Crystal | 952.15 | 1607.6
283.66 K, Crystal | 951.962 | 1606.3
283.91 K, Crystal | 951.769 | 1605
284.16 K, Crystal | 951.578 | 1603.6
284.41 K, Crystal | 951.383 | 1602.3
284.66 K, Crystal | 951.188 | 1600.8
284.91 K, Crystal | 950.989 | 1599.3
285.15 K, Crystal | 950.796 | 1597.7
285.4 K, Crystal | 950.604 | 1595.8
285.65 K, Crystal | 950.404 | 1592.8
285.9 K, Crystal | 950.405 | 1593.2
286.15 K, Liquid crystal of unknown type | 944.693 | 1554.4
286.4 K, Liquid crystal of unknown type | 944.221 | 1552.7
286.65 K, Liquid crystal of unknown type | 944.256 | 1553.3
286.9 K, Liquid crystal of unknown type | 943.886 | 1551.5
287.15 K, Liquid crystal of unknown type | 943.629 | 1550.2
287.4 K, Liquid crystal of unknown type | 943.416 | 1548.9
287.65 K, Liquid crystal of unknown type | 943.228 | 1547.7
287.9 K, Liquid crystal of unknown type | 943.055 | 1546.7
288.15 K, Liquid crystal of unknown type | 942.888 | 1545.7
288.4 K, Liquid crystal of unknown type | 942.726 | 1544.7
288.65 K, Liquid crystal of unknown type | 942.565 | 1543.7
288.9 K, Liquid crystal of unknown type | 942.405 | 1542.7
289.15 K, Liquid crystal of unknown type | 942.244 | 1541.8
289.4 K, Liquid crystal of unknown type | 942.083 | 1540.8
289.65 K, Liquid crystal of unknown type | 941.923 | 1539.9
289.9 K, Liquid crystal of unknown type | 941.764 | 1539
290.15 K, Liquid crystal of unknown type | 941.604 | 1538.1
290.4 K, Liquid crystal of unknown type | 941.445 | 1537.2
290.66 K, Liquid crystal of unknown type | 941.282 | 1536.2
290.9 K, Liquid crystal of unknown type | 941.124 | 1535.3
291.15 K, Liquid crystal of unknown type | 940.965 | 1534.4
291.4 K, Liquid crystal of unknown type | 940.805 | 1533.5
291.65 K, Liquid crystal of unknown type | 940.646 | 1532.6
291.91 K, Liquid crystal of unknown type | 940.485 | 1531.7
292.15 K, Liquid crystal of unknown type | 940.327 | 1530.8
292.41 K, Liquid crystal of unknown type | 940.167 | 1530
292.65 K, Liquid crystal of unknown type | 940.008 | 1529.1
292.9 K, Liquid crystal of unknown type | 939.848 | 1528.2
293.16 K, Liquid crystal of unknown type | 939.688 | 1527.3
293.4 K, Liquid crystal of unknown type | 939.529 | 1526.4
293.66 K, Liquid crystal of unknown type | 939.369 | 1525.5
293.9 K, Liquid crystal of unknown type | 939.211 | 1524.6
294.16 K, Liquid crystal of unknown type | 939.05 | 1523.7
294.41 K, Liquid crystal of unknown type | 938.892 | 1522.9
294.66 K, Liquid crystal of unknown type | 938.731 | 1522
294.91 K, Liquid crystal of unknown type | 938.572 | 1521.1
295.16 K, Liquid crystal of unknown type | 938.414 | 1520.2
295.41 K, Liquid crystal of unknown type | 938.256 | 1519.4
295.66 K, Liquid crystal of unknown type | 938.095 | 1518.5
295.91 K, Liquid crystal of unknown type | 937.936 | 1517.6
296.16 K, Liquid crystal of unknown type | 937.777 | 1516.8
296.41 K, Liquid crystal of unknown type | 937.618 | 1515.9
296.66 K, Liquid crystal of unknown type | 937.459 | 1515
296.91 K, Liquid crystal of unknown type | 937.301 | 1514.2
297.16 K, Liquid crystal of unknown type | 937.14 | 1513.3
297.41 K, Liquid crystal of unknown type | 936.981 | 1512.5
297.66 K, Liquid crystal of unknown type | 936.822 | 1511.6
297.91 K, Liquid crystal of unknown type | 936.662 | 1510.8
298.15 K, Liquid crystal of unknown type | 936.505 | 1509.9
298.41 K, Liquid crystal of unknown type | 936.345 | 1509
298.66 K, Liquid crystal of unknown type | 936.186 | 1508.2
298.91 K, Liquid crystal of unknown type | 936.026 | 1507.3
299.15 K, Liquid crystal of unknown type | 935.868 | 1506.5
299.41 K, Liquid crystal of unknown type | 935.709 | 1505.6
299.66 K, Liquid crystal of unknown type | 935.55 | 1504.8
299.91 K, Liquid crystal of unknown type | 935.39 | 1503.9
300.16 K, Liquid crystal of unknown type | 935.231 | 1503
300.41 K, Liquid crystal of unknown type | 935.072 | 1502.2
300.66 K, Liquid crystal of unknown type | 934.914 | 1501.3
300.9 K, Liquid crystal of unknown type | 934.755 | 1500.5
301.16 K, Liquid crystal of unknown type | 934.596 | 1499.7
301.41 K, Liquid crystal of unknown type | 934.436 | 1498.8
301.66 K, Liquid crystal of unknown type | 934.277 | 1498
301.91 K, Liquid crystal of unknown type | 934.118 | 1497.1
302.16 K, Liquid crystal of unknown type | 933.959 | 1496.3
302.41 K, Liquid crystal of unknown type | 933.802 | 1495.5
302.66 K, Liquid crystal of unknown type | 933.642 | 1494.6
302.91 K, Liquid crystal of unknown type | 933.483 | 1493.8
303.16 K, Liquid crystal of unknown type | 933.324 | 1492.9
303.4 K, Liquid crystal of unknown type | 933.167 | 1492.1
303.66 K, Liquid crystal of unknown type | 933.005 | 1491.3
303.91 K, Liquid crystal of unknown type | 932.846 | 1490.4
304.16 K, Liquid crystal of unknown type | 932.688 | 1489.6
304.41 K, Liquid crystal of unknown type | 932.529 | 1488.8
304.66 K, Liquid crystal of unknown type | 932.371 | 1488
304.91 K, Liquid crystal of unknown type | 932.212 | 1487.1
305.16 K, Liquid crystal of unknown type | 932.053 | 1486.3
305.41 K, Liquid crystal of unknown type | 931.892 | 1485.5
305.66 K, Liquid crystal of unknown type | 931.734 | 1484.7
305.9 K, Liquid crystal of unknown type | 931.576 | 1483.8
306.16 K, Liquid crystal of unknown type | 931.416 | 1483
306.4 K, Liquid crystal of unknown type | 931.258 | 1482.2
306.66 K, Liquid crystal of unknown type | 931.098 | 1481.4
306.91 K, Liquid crystal of unknown type | 930.939 | 1480.5
307.16 K, Liquid crystal of unknown type | 930.781 | 1479.7
307.41 K, Liquid crystal of unknown type | 930.622 | 1478.9
307.66 K, Liquid crystal of unknown type | 930.464 | 1478.1
307.91 K, Liquid crystal of unknown type | 930.304 | 1477.3
308.16 K, Liquid crystal of unknown type | 930.145 | 1476.4
308.41 K, Liquid crystal of unknown type | 929.987 | 1475.6
308.65 K, Liquid crystal of unknown type | 929.828 | 1474.8
308.91 K, Liquid crystal of unknown type | 929.668 | 1474
309.16 K, Liquid crystal of unknown type | 929.509 | 1473.2
309.4 K, Liquid crystal of unknown type | 929.35 | 1472.3
309.66 K, Liquid crystal of unknown type | 929.189 | 1471.5
309.91 K, Liquid crystal of unknown type | 929.032 | 1470.7
310.16 K, Liquid crystal of unknown type | 928.874 | 1469.9
310.41 K, Liquid crystal of unknown type | 928.713 | 1469
310.66 K, Liquid crystal of unknown type | 928.554 | 1468.2
310.91 K, Liquid crystal of unknown type | – | 1467.4
